Source: patent US6417167B1, “Lyophilized compositions containing shingoglycolipid and process for preparing them” (Kirin Beer Kabushiki Kaisha, priority 1997, dated 2002)

Assays:
Assay type in all cases: physicochemical
[1] = Excipient appropriate to lyophilization 2: re-solubility after storage; details: lyophilized, Polysorbate 20 0.5%, 25° C.
Procedure: The lyophilized preparations having mannitol and sucrose added thereto were observed on their variation with the passage of time.
(§1) First, Polysorbate 20 was dissolved in distilled water in a concentration of 0.5%, and the saccharides were dissolved in such concentrations as listed in Table 7. Next, 20 mg of the active component (KRN7000) was weighed and stirred in 100 ml of the solvents in a heated bath to 80° C. for 20 minutes in order to form a solution. After cooling with running water, the mixture was filtered through a 0.22 μm filter, and transparent colorless glass vials having a volume of 5 ml were charged with a 1 ml portion of each of a variety of solutions thus obtained and subjected to lyophilization. Lyophilization was carried out under the condition of preliminary freezing at −40° C. for 2 hours and drying at −20° C. for 24 hours, 10° C. for 12 hours, and finally at 25° C. for 5 hours to give the lyophilized product. The degree of vacuum was set at 0.1 Torr or less during drying step.
(§2) After the lyophilization step, the lyophilized composition was stored at 25° C. After storage for 1 month, the lyophilized composition was reconstituted in 1 ml of distilled water for injection, left standing for 30 minutes, and solubility was judged when the foams generated on reconstitution disappeared. The samples judged in solution were further stored, and judged again of their solubility after 4 months.
(§3) The solubility was judged by cleaning the outside of the vial and placing it beneath the white light source in a darkroom for observation with naked eye at the position of a luminous intensity of about 5,000 lux. When the sample was clear with no precipitates, it was judged that the active component was dissolved.

[2] = Additives for improving re-solubility during storage, mannitol as excipient; details: lyophilized, Polysorbate 20 0.5%, 25° C.
Procedure: as §1, with “mannitol and a variety of additives” for “the saccharides were dissolved in”, “8.” for “7.”, “with” for “with a”
as §2, §3

[3] = Optimal amount of Polysorbate 20: solubility of solutions after storage, by naked eye; set-up: key: +: not dissolved (or deposited); −: dissolved; details: KRN7000 200 μg/ml, stored as solution 25° C.
Procedure: Next, 20 mg of the active component (KRN7000) was weighed and stirred in 100 ml of the Polysorbate solutions having a variety of concentrations in a heated bath at 80° C. for 20 minutes in order to form a solution. After cooling with running water, the mixture was filtered through a 0.22 μm filter, and transparent colorless glass vials having a volume of 5 ml were charged with a 2 ml portion of each of a variety of solutions and sealed up.
These samples were stored at 25° C. for 2 weeks, and judged of their solubility. The samples judged in solution were further stored, and judged again of their solubility after 1 month.
The solubility was judged by cleaning the outside of the vial and placing it beneath the white light source in the darkroom for observation with naked eye at the position of a luminous intensity of about 5,000 lux. When the sample was clear with no precipitates, it was judged that the active component was dissolved.
In the table, the variations with the passage of time after storage represent the solubility when stored in the form of solution.

[4] = Addition effects of sodium deoxycholate and histidine in the absence of a sugar; details: lyophilized, Polysorbate 20 0.5%, no sugar, 1%, 50° C.
Procedure: Addition effects of sodium deoxycholate and histidine in the absence of a sugar as the excipient was examined.
as §1, with “histidine or sodium deoxycholate” for “the saccharides were dissolved”, “a concentration of 1.0%.” for “such concentrations as listed in Table 7.”
After the lyophilization step, the lyophilized composition thus obtained was stored at 50° C. After storage for 3 days or 2 weeks, the lyophilized composition was reconstituted in 1 ml of distilled water for injection, left standing for 30 minutes, and solubility was judged when the foams generated on reconstitution disappeared. […]

CCCCCCCCCCCCCCCCCCCCCCCCCC(=O)N[C@@H](CO[C@H]1O[C@H](CO)[C@H](O)[C@H](O)[C@H]1O)[C@H](O)[C@H](O)CCCCCCCCCCCCCC [KRN7000, (2S,3S,4R)-1-(α-D-galactopyranosyloxy)-2-hexacosanoylamino-3,4-octadecanediol]
Re-solubility after storage (by naked eye) ([1]; Mannitol 10%, 1 month): − (dissolved) | Re-solubility after storage (by naked eye) ([1]; Mannitol 10%, 4 months): + (not dissolved (or deposited)) | Re-solubility after storage (by naked eye) ([1]; Sucrose 9.6%, 1 month): − (dissolved) | Re-solubility after storage (by naked eye) ([1]; Sucrose 9.6%, 4 months): + (not dissolved (or deposited)) | Re-solubility after storage (by naked eye) ([2]; Mannitol 10%, Sodium deoxycholate, 1%, 1 month): − (dissolved) | Re-solubility after storage (by naked eye) ([2]; Mannitol 10%, Sodium deoxycholate, 1%, 4 months): − (dissolved) | Re-solubility after storage (by naked eye) ([2]; Mannitol 10%, no additive, 1 month): − (dissolved) | Re-solubility after storage (by naked eye) ([2]; Mannitol 10%, no additive, 4 months): + (not dissolved (or deposited)) | Re-solubility after storage (by naked eye) ([2]; Mannitol 15%, Glycerol, 0.1%, 1 month): + (not dissolved (or deposited)) | Re-solubility after storage (by naked eye) ([2]; Mannitol 15%, Glycerol, 0.1%, 4 months): + (not dissolved (or deposited)) | Re-solubility after storage (by naked eye) ([2]; Mannitol 15%, Glycerol, 1%, 1 month): + (not dissolved (or deposited)) | Re-solubility after storage (by naked eye) ([2]; Mannitol 15%, Glycerol, 1%, 4 months): + (not dissolved (or deposited)) | Re-solubility after storage (by naked eye) ([2]; Mannitol 15%, PEG400, 1%, 1 month): + (not dissolved (or deposited)) | Re-solubility after storage (by naked eye) ([2]; Mannitol 15%, PEG400, 1%, 4 months): + (not dissolved (or deposited)) | Re-solubility after storage (by naked eye) ([2]; Mannitol 15%, Sodium deoxycholate, 1%, 1 month): + (not dissolved (or deposited)) | Re-solubility after storage (by naked eye) ([2]; Mannitol 15%, Sodium deoxycholate, 1%, 4 months): + (not dissolved (or deposited)) | Re-solubility after storage (by naked eye) ([2]; Mannitol 15%, no additive, 1 month): + (not dissolved (or deposited)) | Re-solubility after storage (by naked eye) ([2]; Mannitol 15%, no additive, 4 months): + (not dissolved (or deposited)) | Variation with the passage of time after storage (by naked eye) ([3]; Polysorbate 20 0.1%, 2 weeks): + | Variation with the passage of time after storage (by naked eye) ([3]; Polysorbate 20 0.2%, 2 weeks): + | Variation with the passage of time after storage (by naked eye) ([3]; Polysorbate 20 0.3%, 1 month): + | Variation with the passage of time after storage (by naked eye) ([3]; Polysorbate 20 0.3%, 2 weeks): − | Variation with the passage of time after storage (by naked eye) ([3]; Polysorbate 20 0.5%, 1 month): + | Variation with the passage of time after storage (by naked eye) ([3]; Polysorbate 20 0.5%, 2 weeks): − | Variation with the passage of time after storage (by naked eye) ([3]; Polysorbate 20 1.0%, 1 month): + | Variation with the passage of time after storage (by naked eye) ([3]; Polysorbate 20 1.0%, 2 weeks): − | Variation with the passage of time after storage (by naked eye) ([3]; Polysorbate 20 2.0%, 1 month): + | Variation with the passage of time after storage (by naked eye) ([3]; Polysorbate 20 2.0%, 2 weeks): − | Variation with the passage of time after storage (by naked eye) ([3]; Polysorbate 20 4.0%, 1 month): + | Variation with the passage of time after storage (by naked eye) ([3]; Polysorbate 20 4.0%, 2 weeks): − | Variation with the passage of time after storage (by naked eye) ([3]; Polysorbate 20 8.0%, 1 month): + | Variation with the passage of time after storage (by naked eye) ([3]; Polysorbate 20 8.0%, 2 weeks): − | Re-solubility after storage (by naked eye) ([4]; Histidine, 2 weeks): + (not dissolved (or deposited)) | Re-solubility after storage (by naked eye) ([4]; Sodium deoxycholate, 3 days): + (not dissolved (or deposited))
